Assay results reported in patent US20070048355A1, “Non-irritating solvent-borne polymeric coatings for application to the skin” (priority 2005, published 2007).

Test system: freshly abraided skin on a finger knuckle
Experiment: standard sting test on abraded finger knuckle skin
Type: in vivo, human
Conditions: for stinging of aliphatic hydrocarbon diluent solvents (in words): neat alkane on abraded skin
Description: The preparations described above were applied to skin that had been carefully abraided shortly before testing to determine whether the stinging and discomfort caused by collodion application could be suppressed by one or more of these agents. The procedure used was to manually scour a finger knuckle using 100 grit garnet sandpaper just to the point of slight bleeding, and then allowing the skin to rest a minute or so until any discomfort, i.e., sensation of irritation, pain or heat, had disappeared prior to challenging the abrasion with a potential chemical irritant. The resultant stinging sensation was compared to that produced with the unmodified commercial New Skin™ collodion product (the “control”). Sting (also termed and described as “burning sensation”) was rated on a five level scale as follows: (−) no sting, (+/−) barely detectable sting, (+) slight sting, (++) moderate sting, (+++) strong sting. […] This method of testing and scoring the level or magnitude of the stinging sensation is referred to herein as the “sting test” or “standard sting test.”
Using the “standard sting test” described above, and similarly abraded skin on a finger knuckle, individual collodion ingredients were tested neat (undiluted). Accordingly, a droplet or two of the mixture or the chemical ingredient was placed on freshly abraided skin.
Several new chemicals and solvents of potential interest were tested, and others that were formerly tested (all in their neat state) were re-tested using the standard sting test procedure and accompanying scoring system described above. Applicant's strategy behind this testing was to find a true solvent or alternatively, a combination of true solvent and either co-solvent or diluent, that would have sufficient volatility to allow rapid drying of a collodion coating without causing stinging when applied to the skin.

[1] = additional testing and re-testing of chemicals and solvents in their neat state, standard sting test
[2] = individual collodion ingredients tested neat (undiluted), a droplet or two on freshly abraided skin

With `CCCCCC` [n-Hexane] the “LEVEL OF STING” value [1] was “−” and the “stinging of aliphatic hydrocarbon diluent solvents (in words)” value (“stinging” below) was “none of the aliphatic hydrocarbon diluent solvents that were tested caused any stinging”.
With `CCCCCO` [n-amyl alcohol] the “LEVEL OF STING” value [1] was “+”.
With `CC(C)CO` [isobutyl alcohol] the “LEVEL OF STING” value [1] was “+”.
In the case of `CCCCOC(C)=O` [n-Butyl Acetate], the “LEVEL OF STING” value [1] is reported as “+/−” and the “LEVEL OF STING” value [2] is reported as “+/−”.
With `CCCCCOC(C)=O` [Amyl Acetate (mixed isomers), Amyl Acetate] the “LEVEL OF STING” value [1] was “+/−” and the “LEVEL OF STING” value [2] was “+/−”.
`CC(C)O` [Isopropyl Alcohol] was tested, and the “LEVEL OF STING” value [1] was “++” and the “LEVEL OF STING” value [2] was “++”.
`CCCOC(C)=O` [n-Propyl acetate] was tested, and the “LEVEL OF STING” value [1] was “+”.
In the case of “Isohexane (e.g., 2-methyl pentane and other isomers)”, the “LEVEL OF STING” value [1] is reported as “−”.
Castor Oil was tested, and the “LEVEL OF STING” value (in vivo) was “−”.
`CC(C)=O` [Acetone] was tested, and the “LEVEL OF STING” value [1] was “+++”.
With `CCOC(C)=O` [Ethyl Acetate] the “LEVEL OF STING” value (in vivo) was “+++”.
`CC(CO)CO` [Methyl propanediol] was tested, and the “LEVEL OF STING” value [1] was “+”.
With `CC(=O)OC(C)(C)C` [tert-Butyl acetate] the “LEVEL OF STING” value [1] was “+/−”.
With `CCCC(C)=O` [Methyl propyl ketone] the “LEVEL OF STING” value [1] was “++”.
`CCCCCCCC` [n-Octane] was tested, and the “LEVEL OF STING” value [1] was “−” and the “stinging” value was “none of the aliphatic hydrocarbon diluent solvents that were tested caused any stinging”.
`CC(=O)OC(C)C` [Isopropyl acetate] was tested, and the “LEVEL OF STING” value [1] was “+”.
`CO` [Methyl alcohol] was tested, and the “LEVEL OF STING” value [1] was “+++”.
For `COC(C)=O` [Methyl acetate], the “LEVEL OF STING” value [1] was “+++”.
In the case of `CCC(C)=O` [Methyl ethyl ketone], the “LEVEL OF STING” value [1] is reported as “+++”.
In the case of `CCCCCCC` [n-Heptane], the “LEVEL OF STING” value [1] is reported as “−” and the “stinging” value is reported as “none of the aliphatic hydrocarbon diluent solvents that were tested caused any stinging”.
In the case of `CCCCC` [n-pentane], the “stinging” value is reported as “none of the aliphatic hydrocarbon diluent solvents that were tested caused any stinging”.
In the case of `CCO` [Ethyl Alcohol], the “LEVEL OF STING” value [1] is reported as “+++” and the “LEVEL OF STING” value [2] is reported as “+++”.
